Test results published in patent US20260200849A1, “CATIONIC LIPIDS AND PREPARATION METHOD THEREOF” (RiboX Therapeutics HK Limited, priority 2024, published 2026).
Where “and” joins values, the source holds several entries; their conditions need not be identical. Equal entries are not always repeated. Where two headings read alike, the source gives them in different places.

Legend:
[1] = LNP size and polydispersity index (PDI) by dynamic light scattering (Zetasizer); format: physicochemical; settings: for Size (nm): Formulation No. 001 (Ionizable lipid:DSPC:cholesterol:DMG-PEG2000 = 50:10:38.5:1.5, N/P 6), RNA No. 331
Description: (§1) The LNP size and polydispersity index (PDI), determined by dynamic light scattering (DLS), and zeta potential were measured by a Zetasizer machine (Malvern). RNA concentration and encapsulation efficacy (EE %) were analyzed by the Quant-IT Ribogreen kit by calculating the percentage encapsulation at 100%—(RNA-LNPs/RNA-LNPs with Triton X-100).

[2] = RNA encapsulation efficacy (EE %) by Quant-IT Ribogreen kit; format: physicochemical; settings: LNP
Description: as §1

[3] = tested on: Hep G2 cells; experiment: In vitro expression: luciferase activity in Hep G2 cells transfected with RNA-LNPs; format: cell-based; settings: Formulation No. 001, RNA No. 331 (firefly-luciferase), 100 ng/mL RNA-LNPs, 72 hours post transfection
Description: 2E5 Hep G2 cells were transfected with 100 ng/mL of RNA-LNPs encoding for firefly-luciferase. At 72 hours post transfection, the cells were washed and lysed. The luciferase expression (2-well repeat) was determined in the cell lysates with the luciferase assay reagent kit (Promega), according to the kit protocol, luciferase activity was measured by a luminometer.

[4] = tested on: Hep G2 cells; experiment: In vitro toxicity: Hep G2 cell viability by CellTiter-Glo; format: cell-based; settings: Formulation No. 001, RNA No. 331, 1 μg/mL RNA-LNPs, 72 hours post transfection, cell only = 100%
Description: 2E5 Hep G2 cells were transfected with 1 μg/mL RNA-LNPs. At 72 hours post transfection, cell viability (2-well repeat) was determined with the CellTiter-Glo® reagent kit, according to the kit protocol, measured by a luminometer. Cell only as control (100%).
The cell viability was calculated according to the following formula: […]

[5] = tested on: Balb/c mice; experiment: In vivo expression by IV, 0.05 mg/kg luciferase RNA-LNPs, IVIS luminescence; settings: Formulation No. 001, RNA No. 331; female Balb/c mice, 0.05 mg*kg−1 intravenous, 24-hours post injection
How it was run: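 Female Balb/c mice (7-8 weeks, N=3) received 0.05 mg*kg−1 firefly-luciferase RNA-LNPs IV. Luciferin (15 mg/ml) was given IP at 24 and 72 h post-dose for IVIS whole-body luminescence. A second run imaged whole body, liver and spleen at 24 h only.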

[6] = tested on: MCP-1; experiment: In vivo tolerability by IV: serum MCP-1 by Luminex; design: species or system C57BL/6J mice; settings: Formulation No. 001, RNA No. 331, male C57BL/6J mice, 1.0 mg*kg/1 intravenous; for MCP-1 at 2 h: 2 hours post injection; for MCP-1 at 24 h: 24 hours post injection
How it was run: (§2)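 Male C57BL/6J mice aged 6-8 weeks (N=3) received 1.0 mg*kg−1 firefly-luciferase RNA-LNPs intravenously, with PBS as negative control. Serum taken at 2 and 24 h post-injection was assayed for MCP-1 and IL-6 by Luminex.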

[7] = tested on: IL-6; experiment: In vivo tolerability by IV: serum IL-6 by Luminex; design: species or system C57BL/6J mice; settings: Formulation No. 001, RNA No. 331, male C57BL/6J mice, 1.0 mg*kg/1 intravenous; for IL-6 at 2 h: 2 hours post injection; for IL-6 at 24 h: 24 hours post injection
How it was run: as §2

[8] = tested on: C57BL/6J mice; experiment: In vivo expression by IV, 1.0 mg/kg luciferase RNA-LNPs, whole-body and organ IVIS luminescence; settings: Formulation No. 001, RNA No. 331; male C57BL/6J mice, 1.0 mg*kg−1 intravenous, 24-hours post injection
How it was run: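 Male C57BL/6J mice, 6-8 weeks old (N=3), received 1.0 mg*kg−1 firefly-luciferase RNA-LNPs IV. At 24 h post-dose, luciferin (15 mg/ml) was given IP, and whole-body, liver, spleen, kidney, small and large intestine luminescence was imaged by IVIS.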

[9] = In vivo lipid metabolism by IV: ionizable lipid concentration in plasma and liver by LC-MS/MS; design: species or system Sprague-Dawley (SD) rats; settings: IV 0.15 mg/kg RNA-LNPs (hEPO), male SD rats, individual animals N=3; for concentration at 6 h: male, Sprague-Dawley, rat, iv, 0.15 mg/kg
How it was run: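 Male SD rats, 7-8 weeks old (N=3), given 0.15 mg*kg−1 hEPO-encoding RNA-LNPs IV. Plasma sampled at 1, 6, 96 and 168 h and liver at 6 and 168 h terminally; ionizable lipid quantified by LC-MS/MS, LLOQ 1 ng/mL plasma, 11 ng/g liver.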

[10] = Formulation No. 001, RNA No. 019 (hEPO)
[11] = Formulation No. 001, RNA No. 331
[12] = liver, 6 h post injection, read-out: Liver (ng/g), ionizable lipid concentration

Structure (SMILES)	Size (nm) [1] [nm]	PDI [1, 10]	Size [1, 10] [nm]	PDI [1, 11]	EE (%) [2, 10] [%]	EE (%) [2, 11] [%]	In vitro Expression (Mean) [3]	In vitro cell viability (%) (Mean) [4]	Liver (p/s) (Mean) [5]	Spleen (p/s) (Mean) [5]	Whole body (p/s) (Mean) [5]	MCP-1 at 2 h [6] [pg/mL]	MCP-1 at 24 h [6] [pg/mL]	IL-6 at 2 h [7] [pg/mL]	IL-6 at 24 h [7] [pg/mL]	Kidney (p/s) [8] [p/s]	Large intestine (p/s) [8] [p/s]	Liver (p/s) [8] [p/s]	Small intestine (p/s) [8] [p/s]	Spleen (p/s) [8] [p/s]	further results
CCCCC/C=C\CCOC(=O)CCCCCOC(=O)C(COC(=O)NCCN1CCCCCC1)NC(=O)OCCCCCCCCOC(=O)C(CCCCCC)CCCCCCCC (stereo not drawn) [Lipid 955]	81.86	0.14	90.32	0.03	93.99	91.27	2.53E+05	95.28	7.00E+08	9.11E+07	2.15E+09	3350	580	1140	7.13	4.80E+07	3.44E+08	1.98E+09	6.59E+08	2.12E+09	Whole body (p/s) [8]: 4.06E+09 p/s; Plasma (ng/mL), ionizable lipid concentration ([9]; 1 h post injection): 6059 ng/mL and 23590 ng/mL and 15983 ng/mL; Liver (ng/g), ionizable lipid concentration ([9]; 6 h post injection): 703 ng/g and 396 ng/g; Plasma (ng/mL), ionizable lipid concentration ([9]; 6 h post injection): 11.9 ng/mL and 22 ng/mL; concentration at 6 h [9, 12]: 668 ng/g; concentration at 6 h ([9]; plasma, 6 h post injection, read-out: Plasma (ng/mL), ionizable lipid concentration): 17 ng/mL
CCCCCCCCCCCOC(=O)CCCCCOC(=O)C(COC(=O)NCCN1CCCCCC1)NC(=O)OCCCCCCCCOC(=O)C(CCCCCC)CCCCCCCC (stereo not drawn) [Lipid 924]	78.20	0.16	87.04	0.05	90.41	90.24	6.15E+05	89.34	9.02E+08	2.37E+08	3.08E+09	1390	207	47.1	5.9	3.17E+07	3.25E+08	5.23E+09	7.18E+08	1.13E+09	Whole body (p/s) [8]: 4.40E+09 p/s; Plasma (ng/mL), ionizable lipid concentration ([9]; 1 h post injection): 5572 ng/mL and 3130 ng/mL and 7622 ng/mL; Liver (ng/g), ionizable lipid concentration ([9]; 6 h post injection): 1864 ng/g and 1834 ng/g; Plasma (ng/mL), ionizable lipid concentration ([9]; 6 h post injection): 2.59 ng/mL and 3.41 ng/mL and 298 ng/mL; concentration at 6 h [9, 12]: 1410 ng/g
